Assay results reported in patent publication US11814376B2, “Hepatitis b core protein modulators” (Assembly Biosciences, Inc., priority 2015, dated 2023).

Experiments:
[1] = test system: HBV viral load in AD38 cells; assay: Viral load production in AD38 cells, quantitative PCR of the core sequence in supernatant; format: cell-based; details: 10 μM compound, 6 days at 37° C., supernatant qPCR, relative to DMSO control; for activity at 10 µM: Hepatitis B virus, 144 h, read-out: AD38 Viral Load (%) (VL with cmpd/VL in DMSO control) at 10 μM
AD38 cells = assay: Viability of AD38 cells (Promega CellTiter-Glo); format: cell-based; details: 10 μM compound, 6 days, CellTiter-Glo luminescence normalized to DMSO control (100%)
Outline: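 After 6 days of compound exposure at 37° C (compound added as 10× solution in 10% DMSO; 50,000 cells/well, collagen-coated), medium was replaced with tetracycline-free DMEM/F12, 2% FBS, 1% DMSO. CellTiter-Glo luminescence was then recorded and normalized to DMSO-treated wells as 100% viability.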

| SMILES | AD38 Viral Load (%) (VL with cmpd/VL in DMSO control) at 10 μM [1] | AD38 Viability Normalized Result (cmpd/DMSO %) at 10 μM (AD38 cells) [%] | activity at 10 µM [1] [%] |
| --- | --- | --- | --- |
| CC(C)(C)OC(=O)N1CCN(C(=O)c2ccc(-c3ncc(CNC(=O)c4ccc5c(c4)NC(=O)c4ccccc4S5(=O)=O)s3)cc2)CC1 [11016-A, tert-butyl 4-(4-(5-((5,5-dioxido-11-oxo-10, 11-dihydrodibenzo [b, f] [1, 4]thiazepine-8-carboxamido)methyl)thiazol-2-yl)benzoyl) piperazine-1-carboxylate] | 6.7 | 103 | – |
| O=C(NCc1cnc(-c2ccc(N3CCCC3=O)cc2)s1)c1ccc2c(c1)NC(=O)c1ccccc1S2(=O)=O [compound 1858] | – | 103 | 0.7 |
| N#Cc1ccc(-c2ncc(CNC(=O)c3cc4c(cc3Cl)S(=O)(=O)c3ccccc3C(=O)N4)s2)cc1 [compound 1935] | – | 112 | 0.7 |
| COc1c(C)cc(-c2ncc(CNC(=O)c3ccc4c(c3)NC(=O)c3ccccc3S4(=O)=O)s2)cc1C [1806-A, N-((2-(4-methoxy-3,5-dimethylphenyl)thiazol-5-yl)methyl)-11-oxo-10, 11-dihydrodibenzo [b, f] [1, 4] thiazepine-8-carboxamide 5,5-dioxide] | – | 66 | 0.3 |
| Cl.O=C(NCc1cnc(-c2ccc(C(=O)N3CCNCC3)cc2)s1)c1ccc2c(c1)NC(=O)c1ccccc1S2(=O)=O [compound 11016, 11-oxo-N-((2-(4-(piperazine-1-carbonyl)phenyl)thiazol-5-yl)methyl)-10, 11-dihydrodibenzo [b, f] [1, 4] thiazepine-8-carboxamide 5,5-dioxide hydrochloride] | – | 106 | 38.8 |
| CCCN1c2ccc(C(=O)NCc3cnc(-c4ccc(C#N)cc4)s3)cc2NC(=O)c2ccccc21 [compound 1917] | – | 108 | 1.1 |
| CC(C)(C)c1ncc(CNC(=O)c2ccc3c(c2)NC(=O)c2ccccc2S3(=O)=O)s1 [compound 1550] | – | 96 | 4 |
| O=C(NCc1cnc(Cc2ccc(O)cc2)s1)c1ccc2c(c1)NC(=O)c1ccccc1S2(=O)=O [compound 1823, N-((2-(4-hydroxybenzyl)thiazol-5-yl)methyl)-11-oxo-10, 11-dihydrodibenzo [b, f] [1, 4] thiazepine-8-carboxamide 5,5-dioxide] | – | 96 | 5.2 |
| CCN(CC)CCCOc1ccc(-c2ncc(CNC(=O)c3ccc4c(c3)NC(=O)c3ccccc3O4)s2)cc1.Cl [compound 11162, N-((2-(4-(3-(diethylamino)propoxy)phenyl)thiazol-5-yl)methyl)-11-oxo-10, 11-dihydrodibenzo [b, f] [1, 4] oxazepine-8-carboxamide hydrochloride] | – | 104 | 8.7 |
| CC(=O)Nc1ccc(-c2ncc(CNC(=O)c3ccc4c(c3)NC(=O)c3ccccc3S4(=O)=O)s2)cc1 [compound 1932] | – | 101 | 2.2 |
| O=C(NCc1cnc(-c2ccc(O)cc2)s1)c1ccc2c(c1)NC(=O)c1ccc(Cl)cc1S2 [compound 1761] | – | 97 | 10.7 |
| Cc1c(C(=O)NCc2cnc(-c3ccc(OCCCN(C)C)cc3)s2)ccc2c1NC(=O)c1ccccc1O2 [C44-01] | – | 97 | 2.6 |
| CN1CCN(c2ncc(CNC(=O)c3ccc4c(c3)NC(=O)c3ccccc3S4(=O)=O)s2)CC1 [compound 1648] | – | 95 | 9.9 |
| CCOC(=O)c1cnn(-c2ncc(CNC(=O)c3ccc4c(c3)NC(=O)c3ccccc3S4(=O)=O)s2)c1 [compound 11116] | – | 97 | 0.9 |
| COc1ccc(-c2ncc(CNC(=O)c3ccc4c(c3)NC(=O)c3ccccc3S4(=O)=O)s2)cc1C [1804-A, N-((2-(4-methoxy-3-methylphenyl)thiazol-5-yl)methyl)-11-oxo-10, 11-dihydrodibenzo [b, f] [1, 4] thiazepine-8-carboxamide 5,5-dioxide] | – | 90 | 6.6 |
| O=C(NCc1cnc(C(F)(F)F)s1)c1ccc2c(c1)NC(=O)c1ccccc1N2CCO [compound 11078] | – | 96 | 45.7 |
| O=C(NCc1cnc(-c2ccc(OCCCN3CCCCC3)cc2)s1)c1ccc2c(c1)NC(=O)c1ccccc1S2(=O)=O [compound 1992] | – | 89 | 5 |
| Nc1ncc(CNC(=O)c2ccc3c(c2)NC(=O)c2ccccc2S3(=O)=O)s1 [compound 1529] | – | 97 | 2 |

| SMILES | AD38 Viral Load (%) (VL with cmpd/VL in DMSO control) at 10 μM [1] | AD38 Viability Normalized Result (cmpd/DMSO %) at 10 μM (AD38 cells) [%] | activity at 10 µM [1] [%] |
| --- | --- | --- | --- |
| CC(C)N(C)CCCCc1ccc(-c2ncc(CNC(=O)c3ccc4c(c3)NC(=O)c3ccccc3S4(=O)=O)s2)cc1 [compound 11093] | – | 102 | 4.6 |
| O=C(NCc1cnc(-c2ccc(OC3CCNCC3)cc2)s1)c1ccc2c(c1)NC(=O)c1ccccc1S2(=O)=O [compound 11026, 11-oxo-N-((2-(4-(piperidin-4-yloxy)phenyl)thiazol-5-yl)methyl)-10, 11-dihydrodibenzo [b, f] [1, 4] thiazepine-8-carboxamide 5,5-dioxide] | – | 100 | 5.5 |
| CN(C)C1CN(Cc2ccc(-c3ncc(CNC(=O)c4ccc5c(c4)NC(=O)c4ccccc4S5(=O)=O)s3)cc2)C1 [compound 11158] | – | 100 | 6.4 |
| Cl.O=C(NCc1cnc(-c2ccc(OCC3CCCNC3)cc2)s1)c1ccc2c(c1)NC(=O)c1ccccc1S2(=O)=O (stereo not shown) [compound 1997, 11-oxo-N-((2-(4-(piperidin-3-ylmethoxy)phenyl)thiazol-5-yl)methyl)-10, 11-dihydrodibenzo [b, f] [1, 4] thiazepine-8-carboxamide 5,5-dioxide hydrochloride] | – | 104 | 9.7 |
| Cc1ncc(CNC(=O)c2ccc3c(c2)NC(=O)c2ccccc2O3)s1 [compound 1557] | – | 98 | 0.6 |
| CN(C)CCSc1ncc(CNC(=O)c2ccc3c(c2)NC(=O)c2ccccc2S3(=O)=O)s1 [compound 1590] | – | 95 | 6.2 |
| O=C(NCc1cnc(-c2ccc(O)cc2Cl)s1)c1ccc2c(c1)NC(=O)c1ccccc1O2 [compound 1703] | – | 93 | 3.1 |
| O=C(O)COc1ccc(-c2ncc(CNC(=O)c3ccc4c(c3)NC(=O)c3ccccc3S4)s2)cc1 [compound 1607, 2-(4-(5-((11-oxo-10, 11-dihydrodibenzo [b, f] [1, 4]thiazepine-8-carboxamido)methyl)thiazol-2-yl)phenoxy) acetic acid] | – | 98 | 52.8 |
| N#Cc1ccc(-c2ncc(CNC(=O)c3ccc4c(c3)NC(=O)c3ccccc3S4(=O)=O)s2)c(Cl)c1 [compound 1816] | – | 82 | 0.2 |
| CS(=O)(=O)c1ccc(-c2ncc(CNC(=O)c3ccc4c(c3)NC(=O)c3ccccc3S4(=O)=O)s2)cc1 [compound 1855] | – | 102 | 2.5 |
| O=C(NCc1cnc(-c2cc(O)ccn2)s1)c1ccc2c(c1)NC(=O)c1ccccc1S2(=O)=O [compound 1880, N-((2-(4-hydroxypyridin-2-yl)thiazol-5-yl)methyl)-11-oxo-10, 11-dihydrodibenzo [b, f] [1, 4] thiazepine-8-carboxamide 5,5-dioxide] | – | 104 | 6.7 |
| CCN(CC)CCCCc1ccc(-c2ncc(CNC(=O)c3ccc4c(c3)NC(=O)c3ccccc3S4(=O)=O)s2)cc1 [compound 11053] | – | 104 | 3.6 |
| Cc1nc(C)c(CNC(=O)c2ccc3c(c2)NC(=O)c2ccccc2S3(=O)=O)s1 [compound 1763] | – | 93 | 12.9 |
| O=C(NCc1cnc(N2CCCCC(O)C2)s1)c1ccc2c(c1)NC(=O)c1ccccc1S2(=O)=O (stereo not shown) [compound 1908] | – | 94 | 7 |
| CCc1ncc(CNC(=O)c2ccc3c(c2)NC(=O)c2ccccc2S3(=O)=O)s1 [compound 1551] | – | 99 | 0.4 |
| CC(C)(C)OC(=O)NCCNC(=O)c1ccc(-c2ncc(CNC(=O)c3ccc4c(c3)NC(=O)c3ccccc3S4(=O)=O)s2)cc1 [11017-A, tert-butyl (2-(4-(5-((5,5-dioxido-11-oxo-10, 11-dihydrodibenzo [b, f] [1, 4]thiazepine-8-carboxamido)methyl)thiazol-2-yl)benzamido)ethyl)carbamate] | – | 102 | 8.8 |
| CC(C)(C)OC(=O)N1CCN(c2ccc(-c3ncc(CNC(=O)c4ccc5c(c4)NC(=O)c4ccccc4S5(=O)=O)s3)cn2)CC1 [11019-A, tert-butyl 4-(5-(5-((5,5-dioxido-11-oxo-10, 11-dihydrodibenzo [b, f] [1, 4]thiazepine-8-carboxamido)methyl)thiazol-2-yl)pyridin-2-yl) piperazine-1-carboxylate] | 1.0 | 95 | – |
